From PubChem BioAssay (NCI) come the findings set out here.

The structures appear in SMILES notation.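 The compound was tested at five concentrations on cells cultured in 96-well plates, with a 48-hour exposure period. TGI: total growth inhibition.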

The first test concerns LOX IMVI melanoma. The test is described as follows: growth of human tumour cells (NCI), 48 h.
For `O=c1[nH]cc(-c2c[nH]c3ccccc23)nc1-c1c[nH]c2ccccc12`, the TGI turned out to be 27.5 µM.
`CC(=O)Nc1ccc(C(O)/C(=N/N)c2nc3ccc(Cl)cc3[nH]c2=O)cc1` (stereo unspecified): the TGI was more than 100 µM.
Same read-out and setting: the value for `Nc1n[n+](CC(=O)c2ccccc2)c2sc(-c3ccccc3)nn12` was more than 100 µM.
`CC1=NN(C(=O)c2ccncc2)C(=O)C1`: the TGI was more than 100 µM.
As to `CCN1C(=O)c2cc(OC)c(OC)cc2C(=O)C12OC(=O)c1cc3c(cc12)OCO3` (stereo unspecified), the TGI is more than 100 µM.
In turn, `O=C1CCCN1C(=O)CS(=O)(=O)c1ccccc1` came in with a TGI of more than 100 µM.
On the same count and under the same terms, for `Cc1cc(C)c(-n2[nH]c(=O)n(C)c2=O)c(C)c1` the value was more than 100 µM; for `CC1=NC(=Cc2cccc(Cl)c2)C(=O)N1n1c(-c2ccccc2)nc2ccccc2c1=O`, 55.2 µM; for `CO/C(=N\N=C\c1ccc(OC)c(OC)c1)c1ccncc1`, more than 10 µM.
As for `COC1=CC(=O)C2=C(C1=O)[C@H]1CC[C@]3(C)[C@@H](O)CC[C@H]3[C@@H]1CC2`, the TGI is 35.8 µM.
In turn, `CCC(CCCN)Nc1cc(OC)cc2c(C)ccnc12` (stereo unspecified) returned a TGI of 31.6 µM.
On the same count and under the same terms, for `CC(C)(C)OC(=O)N/N=C(/N)Cc1ccc(Cl)cc1` the value was more than 100 µM.

A further test relates to MALME-3M melanoma. Description: growth of human tumour cells (NCI), 48 h.
`Cc1ccccc1-n1c(=O)c2ncn(C3CCCO3)c2n(-c2ccccc2C)c1=S` (stereo unspecified) returned a TGI of more than 100 µM.
In turn, `CC1(/C=C/CCSc2ccccc2)CC(=O)C2CC1C2(C)C` (stereo unspecified) came in with a TGI of more than 69.7 µM.
The same measure, in the same setting: the value for `C/C(=N\Nc1ccc([N+](=O)[O-])cc1[N+](=O)[O-])c1sc(-n2nc(-c3ccccc3)cc2-c2ccccc2)nc1C` was more than 100 µM; that for `CS(=O)(=O)OCC1CN(S(C)(=O)=O)c2cc(O)ccc21` (stereo unspecified) was 4.35 µM.
For `O=c1[nH]cc(-c2c[nH]c3ccccc23)nc1-c1c[nH]c2ccccc12`, the TGI is 24.1 µM.
In the case of `CC(=O)Nc1ccc(C(O)/C(=N/N)c2nc3ccc(Cl)cc3[nH]c2=O)cc1` (stereo unspecified), the TGI was more than 100 µM.
On the same count and under the same terms, the value for `Nc1n[n+](CC(=O)c2ccccc2)c2sc(-c3ccccc3)nn12` was more than 100 µM; that for `CC1=NN(C(=O)c2ccncc2)C(=O)C1` was more than 100 µM; that for `CCN1C(=O)c2cc(OC)c(OC)cc2C(=O)C12OC(=O)c1cc3c(cc12)OCO3` (stereo unspecified) was more than 100 µM.
`O=C1CCCN1C(=O)CS(=O)(=O)c1ccccc1` showed a TGI of more than 100 µM.
As to `Cc1cc(C)c(-n2[nH]c(=O)n(C)c2=O)c(C)c1`, the TGI is more than 100 µM.
With `CC1=NC(=Cc2cccc(Cl)c2)C(=O)N1n1c(-c2ccccc2)nc2ccccc2c1=O`, the TGI was 82.1 µM.
As for `CO/C(=N\N=C\c1ccc(OC)c(OC)c1)c1ccncc1`, the TGI is more than 10 µM.
`CCC(CCCN)Nc1cc(OC)cc2c(C)ccnc12` (stereo unspecified) came in with a TGI of 50.4 µM.
`CC(C)(C)OC(=O)N/N=C(/N)Cc1ccc(Cl)cc1` showed a TGI of more than 100 µM.

The subject of another test is MDA-MB-231 breast. The test is described as follows: growth of human tumour cells (NCI), 48 h.
For the compound `COCc1nc(N)nc(N2N=C(C)CC2(C)C)n1`, the TGI is more than 100 µM.
`Cc1ccccc1-n1c(=O)c2ncn(C3CCCO3)c2n(-c2ccccc2C)c1=S` (stereo unspecified) yielded a TGI of more than 100 µM.
The compound `CC1(/C=C/CCSc2ccccc2)CC(=O)C2CC1C2(C)C` (stereo unspecified) yielded a TGI of more than 100 µM.
On the same count and under the same terms, for `C/C(=N\Nc1ccc([N+](=O)[O-])cc1[N+](=O)[O-])c1sc(-n2nc(-c3ccccc3)cc2-c2ccccc2)nc1C` the value was more than 100 µM.
For `CS(=O)(=O)OCC1CN(S(C)(=O)=O)c2cc(O)ccc21` (stereo unspecified), the TGI was 6.8 µM.
Turning to `O=c1[nH]cc(-c2c[nH]c3ccccc23)nc1-c1c[nH]c2ccccc12`, the TGI amounted to 89.2 µM.
For the compound `CC(=O)Nc1ccc(C(O)/C(=N/N)c2nc3ccc(Cl)cc3[nH]c2=O)cc1` (stereo unspecified), the TGI is more than 100 µM.
On to `Nc1n[n+](CC(=O)c2ccccc2)c2sc(-c3ccccc3)nn12`, for which the TGI is more than 100 µM.
On the same count and under the same terms, the value for `CC1=NN(C(=O)c2ccncc2)C(=O)C1` was more than 100 µM; that for `CCN1C(=O)c2cc(OC)c(OC)cc2C(=O)C12OC(=O)c1cc3c(cc12)OCO3` (stereo unspecified) was more than 100 µM.
Turning to `O=C1CCCN1C(=O)CS(=O)(=O)c1ccccc1`, the TGI was more than 100 µM.
Compound `Cc1cc(C)c(-n2[nH]c(=O)n(C)c2=O)c(C)c1` came in with a TGI of more than 100 µM.
On the same count and under the same terms, the value for `CC1=NC(=Cc2cccc(Cl)c2)C(=O)N1n1c(-c2ccccc2)nc2ccccc2c1=O` was more than 100 µM.
`CO/C(=N\N=C\c1ccc(OC)c(OC)c1)c1ccncc1` gave a TGI of more than 10 µM.
As for `COC1=CC(=O)C2=C(C1=O)[C@H]1CC[C@]3(C)[C@@H](O)CC[C@H]3[C@@H]1CC2`, the TGI turned out to be 5.84 µM.
As to `CCC(CCCN)Nc1cc(OC)cc2c(C)ccnc12` (stereo unspecified), the TGI stood at 28.5 µM.
Consider `CC(C)(C)OC(=O)N/N=C(/N)Cc1ccc(Cl)cc1`, for which the TGI was more than 100 µM.

The subject of the next test is NCI-H23 lung. Description: growth of human tumour cells (NCI), 48 h.
Compound `COCc1nc(N)nc(N2N=C(C)CC2(C)C)n1` returned a TGI of more than 100 µM.
On the same count and under the same terms, the value for `Cc1ccccc1-n1c(=O)c2ncn(C3CCCO3)c2n(-c2ccccc2C)c1=S` (stereo unspecified) was more than 100 µM; that for `CC1(/C=C/CCSc2ccccc2)CC(=O)C2CC1C2(C)C` (stereo unspecified) was more than 100 µM; that for `C/C(=N\Nc1ccc([N+](=O)[O-])cc1[N+](=O)[O-])c1sc(-n2nc(-c3ccccc3)cc2-c2ccccc2)nc1C` was more than 100 µM.
The same measure, in the same setting: for `CS(=O)(=O)OCC1CN(S(C)(=O)=O)c2cc(O)ccc21` (stereo unspecified) the value was 6.61 µM.
Compound `O=c1[nH]cc(-c2c[nH]c3ccccc23)nc1-c1c[nH]c2ccccc12` came in with a TGI of 31.5 µM.
`CC(=O)Nc1ccc(C(O)/C(=N/N)c2nc3ccc(Cl)cc3[nH]c2=O)cc1` (stereo unspecified) had a TGI of more than 100 µM.
In turn, `Nc1n[n+](CC(=O)c2ccccc2)c2sc(-c3ccccc3)nn12` registered a TGI of more than 100 µM.
Same read-out and setting: the value for `CC1=NN(C(=O)c2ccncc2)C(=O)C1` was more than 100 µM; that for `CCN1C(=O)c2cc(OC)c(OC)cc2C(=O)C12OC(=O)c1cc3c(cc12)OCO3` (stereo unspecified) was more than 100 µM.
Consider `O=C1CCCN1C(=O)CS(=O)(=O)c1ccccc1`, for which the TGI is more than 100 µM.
Still for that read-out and setting: for `Cc1cc(C)c(-n2[nH]c(=O)n(C)c2=O)c(C)c1` the value was more than 100 µM.
For `CC1=NC(=Cc2cccc(Cl)c2)C(=O)N1n1c(-c2ccccc2)nc2ccccc2c1=O`, the TGI is more than 100 µM.
Compound `CO/C(=N\N=C\c1ccc(OC)c(OC)c1)c1ccncc1` registered a TGI of more than 10 µM.
On the same count and under the same terms, for `COC1=CC(=O)C2=C(C1=O)[C@H]1CC[C@]3(C)[C@@H](O)CC[C@H]3[C@@H]1CC2` the value was 56.8 µM.

Another test has as its system RPMI-8226 leukemia. Description: growth of human tumour cells (NCI), 48 h.
Take `COCc1nc(N)nc(N2N=C(C)CC2(C)C)n1`: the TGI is more than 100 µM.
Same read-out and setting: for `Cc1ccccc1-n1c(=O)c2ncn(C3CCCO3)c2n(-c2ccccc2C)c1=S` (stereo unspecified) the value was more than 100 µM; for `CC1(/C=C/CCSc2ccccc2)CC(=O)C2CC1C2(C)C` (stereo unspecified), 18.8 µM; for `C/C(=N\Nc1ccc([N+](=O)[O-])cc1[N+](=O)[O-])c1sc(-n2nc(-c3ccccc3)cc2-c2ccccc2)nc1C`, 41.4 µM.
Same read-out and setting: the value for `CS(=O)(=O)OCC1CN(S(C)(=O)=O)c2cc(O)ccc21` (stereo unspecified) was 12.2 µM.
Turning to `O=c1[nH]cc(-c2c[nH]c3ccccc23)nc1-c1c[nH]c2ccccc12`, the TGI amounted to 43.8 µM.
Compound `Nc1n[n+](CC(=O)c2ccccc2)c2sc(-c3ccccc3)nn12` had a TGI of more than 100 µM.
